Test results from PubChem BioAssay (NCI).
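Interpolation was linear, between the two tested concentrations surrounding the appropriate level; five concentrations were tested over 48 hours in 96-well plates. TGI denotes the concentration required for complete inhibition of growth.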

Tests used:
Assay in all cases: DTP human tumour cell line panel, 48 h
SNB-19 CNS = tested on: SNB-19 CNS
SF-268 CNS = tested on: SF-268 CNS
K-562 leukemia = tested on: K-562 leukemia
CAKI-1 renal = tested on: CAKI-1 renal
NCI/ADR-RES ovarian = tested on: NCI/ADR-RES ovarian
SN12C renal = tested on: SN12C renal
HOP-92 NSCLC = tested on: HOP-92 NSCLC
SNB-75 CNS = tested on: SNB-75 CNS
SK-OV-3 ovarian = tested on: SK-OV-3 ovarian
NCI-H522 lung = tested on: NCI-H522 lung
MOLT-4 leukemia = tested on: MOLT-4 leukemia
MDA-MB-435 = tested on: MDA-MB-435
ACHN renal = tested on: ACHN renal
HCT-116 colon = tested on: HCT-116 colon
UO-31 renal = tested on: UO-31 renal
IGROV1 ovarian = tested on: IGROV1 ovarian

SMILES	TGI (SNB-19 CNS) [µM]	TGI (SF-268 CNS) [µM]	TGI (K-562 leukemia) [µM]	TGI (CAKI-1 renal) [µM]	TGI (NCI/ADR-RES ovarian) [µM]	TGI (SN12C renal) [µM]	TGI (HOP-92 NSCLC) [µM]	TGI (SNB-75 CNS) [µM]	TGI (SK-OV-3 ovarian) [µM]	TGI (NCI-H522 lung) [µM]	TGI (MOLT-4 leukemia) [µM]	TGI (MDA-MB-435) [µM]	TGI (ACHN renal) [µM]	TGI (HCT-116 colon) [µM]	TGI (UO-31 renal) [µM]	TGI (IGROV1 ovarian) [µM]
CCOC(=O)c1cn2c(n1)sc1c(Cl)c(Cl)ccc12	98.9	> 54.9	> 46.9	65.3	97.9	39	> 100	73.1	> 100	43.4	> 40	12.6	> 100	33	> 100	> 100
COc1cc(OC)nc(-n2c(N)c(C#N)c3ccc([N+](=O)[O-])cc3c2=O)n1	> 100	> 100	–	> 100	> 100	> 100	> 100	> 100	–	55.4	> 100	> 100	> 100	> 100	> 100	> 100
C/C=C\C(CC(=O)NCCC1CN(S(=O)(=O)c2ccc(C)cc2)c2ccccc21)CC(=O)OC (centres undefined)	> 100	> 100	> 100	> 100	> 100	–	> 100	> 100	> 100	> 100	> 100	> 100	> 100	> 100	> 100	> 100
O=S(=O)(O)C(=Nc1cccc(Cc2ccccc2)c1)Nc1cccc(Cc2ccccc2)c1	48.5	33.6	> 100	> 100	35.2	37.2	28.6	30.6	36.9	29.4	83.4	40.6	38.7	28.2	29.5	31.3
CNc1ccc2c(c1)[C@@]1(C)c3ccccc3[C@@H](C2)N1C	> 100	> 100	67.5	> 100	64.2	33	74.4	–	> 100	37.7	47.6	39.1	> 100	33.4	> 100	> 100
COc1ccc(C(=O)c2sc(Nc3ccc(Cl)cc3)nc2N)cc1	> 69.9	43.3	> 100	42.2	> 69.5	> 62.8	> 63.5	18.4	27.2	33.9	> 71.4	7.35	> 87.7	> 34.4	97.7	> 53.9
CC(=O)Oc1ccc(-c2cc3ccccc3oc2=O)cc1	> 100	> 100	> 100	–	> 100	> 100	> 100	> 100	–	> 100	> 100	> 100	> 100	> 100	> 100	–
CC(=O)O[C@H]1[C@@H]2OC(=O)[C@@](O)(CC3CCCO3)[C@@H]2CC(=O)[C@](C)(O)CC/C=C(\C)CCC[C@@H]1C (some centres undefined)	> 100	> 100	90.9	44.5	> 100	> 100	87.7	> 100	–	72.4	–	> 100	> 100	–	> 100	> 100
COc1ccc(CNC(=O)NCn2cc(-c3ccccc3)nn2)cc1	> 100	> 100	> 100	> 100	> 100	> 100	> 100	> 100	–	> 100	> 100	> 100	> 100	> 100	–	> 100
Clc1cc(Cl)cc(C=NC23CC4CC(CC(C4)C2)C3)c1	> 10	> 10	> 10	> 10	> 10	> 10	> 10	> 10	> 10	> 10	> 10	> 10	> 10	> 10	–	> 10
C=CCc1cccc2cc(C(=O)Nc3ccccc3)c(=N)oc12	> 100	> 100	> 100	> 100	> 100	> 100	> 100	> 100	> 100	> 100	> 100	> 100	> 100	> 100	–	> 100
Cc1nn(C(=O)c2ccc(Cl)cc2)c2c1C(c1ccccc1[N+](=O)[O-])SC(N)=N2 (centres undefined)	> 10	> 10	> 10	> 10	> 10	> 10	> 10	> 10	> 10	> 10	> 10	> 10	> 10	> 10	–	> 10
Cn1c2ccc3cc2c(=S)c2cc(ccc21)OCCOCCOCCOCCOCCO3	> 10	> 10	> 10	> 10	> 10	> 10	> 10	> 10	> 10	> 10	> 10	> 10	> 10	> 10	–	> 10
CC(C)(C)OC(=O)N1CCC(C(=O)O)CC1	> 100	> 100	–	> 100	> 100	> 100	> 100	> 100	–	> 100	> 100	> 100	> 100	> 100	> 100	> 100
C[C@@H](c1ccccc1)N1CN(C(=O)OCc2ccccc2)C(C)(C)CC1=O	> 100	> 100	> 100	> 100	> 100	> 100	> 100	> 100	> 100	> 100	> 100	> 100	> 100	> 100	–	> 100
CCOP(=O)(OCC)C(C)(CC)N/C(=N/C(NC(C)=O)(C(F)(F)F)C(F)(F)F)NC1=NC(C(F)(F)F)(C(F)(F)F)N=C(C(F)(F)F)O1 (centres undefined)	> 100	> 100	> 100	> 100	47.4	> 100	63.9	27.2	> 100	77.7	45.3	> 100	> 100	> 100	–	> 100
N#Cc1c(-c2ccc([N+](=O)[O-])cc2)c(C#N)c(=O)n(NS(=O)(=O)c2ccccc2)c1-c1ccccc1	> 100	> 100	> 100	> 100	> 100	> 100	> 100	> 100	> 100	> 100	> 100	> 100	> 100	> 100	–	> 100
CN1CNc2nc(N)n(C)c(=O)c2C1	> 10	> 10	> 10	–	> 10	> 10	> 10	> 10	> 10	> 10	> 10	> 10	> 10	–	> 10	> 10
CC1=NN(c2cccc(Cl)c2)C2(SCC(=O)N2c2nc3ccccc3s2)/C1=C\c1cccs1 (centres undefined)	–	44	26.4	99	48.9	–	53.6	47.9	–	61.8	30.4	> 100	> 100	52.1	60.2	> 100
CCOC(=O)Cn1c(=O)c2nc(SC)sc2n(CC)c1=S	> 100	> 100	> 100	–	> 100	> 100	> 100	52.4	> 100	> 100	> 100	3.2	> 100	> 100	28.8	> 100
CCSc1n/c(=C\c2ccco2)c2nncn12	> 100	> 100	> 100	–	> 100	> 100	> 100	> 100	> 100	> 100	> 100	> 100	> 100	> 100	> 100	> 100
COc1ccc(-n2c(=O)[nH]n(C(C)=O)c2=O)cc1	> 100	> 100	> 100	> 100	> 100	> 100	> 100	> 100	–	> 100	> 100	> 100	> 100	> 100	> 100	> 100
CC(C)(C)c1cc(C2=NNC(c3ccccc3)C2)cc(C(C)(C)C)c1O (centres undefined)	36.4	36	–	28.2	38.7	32.7	31.2	25.3	38.2	28.4	> 100	26.8	29.8	28.3	30.3	30.2
CC[C@]1(Cc2ccc(OC)c(OC)c2)C=[N+]([O-])O[C@H](OC2CCCC2(c2ccccc2)c2ccccc2)[C@@H]1OC(C)=O (some centres undefined)	18.5	11.4	> 27.7	–	14.8	> 39.3	54.7	9.62	50.2	9.77	> 23.8	7	10.2	6.16	12.6	10.6
CN(C)CCN(C)c1ccc2c(=O)n(CCN(C)C)c(=O)n3c4ccccc4c(=O)c1c23	9.7	0.559	–	1.08	16.9	2.64	1.82	3.5	16.7	2.8	0.135	3.18	0.849	3.14	2.62	8.02
COc1ccc(-n2cnc3c2NC(C)(C)N=C3C(N)=O)c(OC)c1	> 100	> 100	> 100	> 100	> 100	> 100	> 100	> 100	> 100	> 100	–	> 100	> 100	> 100	–	> 100
O=c1ccn([C@@H]2C[C@@H]2CO)c(=O)[nH]1	> 100	> 100	> 100	> 100	> 100	> 100	> 100	> 100	–	> 100	–	> 100	> 100	> 100	> 100	> 100
S=C1N(/N=C/c2c3ccccc3cc3ccccc23)C(=Nc2ccccc2)C(=Nc2ccccc2)N1c1ccccc1	> 100	> 100	> 100	> 100	> 100	> 100	> 100	–	> 100	> 100	> 100	> 100	–	> 100	> 100	> 100
COC(=O)C1CN=CN1CCc1ccccc1 (centres undefined)	> 100	–	> 100	> 100	> 100	–	> 100	> 100	> 100	> 100	> 100	> 100	> 100	> 100	> 100	> 100
CCCN(CCCc1ccccc1)CCc1ccc2[nH]c(=S)[nH]c2c1	91.7	> 100	29.3	> 100	> 100	> 100	42.6	68.3	> 100	–	54	41.8	> 100	> 100	51.4	79.9
